Laboratory results taken from BindingDB's records for patent US20250257051 (1910 Genetics, 2025).

Target: T1, Non-receptor tyrosine-protein kinase TYK2 [556-888] (Homo sapiens, UniProt P29597)
T1 construct: 556-888
Assay: TYK2 JH2 Domain Binding Assay
Method: Binding constants for compounds disclosed herein against the JH2 domain are determined by the following protocol for a KINOMEscan assay (DiscoveRx). A fusion protein of a partial length construct of human TYK2 (JH2domain-pseudokinase) (amino acids G556 to D888 based on reference sequence NP 003322.3) and the DNA binding domain of NFkB is expressed in transiently transfected HEK293 cells. From these HEK 293 cells, extracts are prepared in M-PER extraction buffer (Pierce) in the presence of Protease Inhibitor Cocktail Complete (Roche) and Phosphatase Inhibitor Cocktail Set II (Merck) per manufacturers' instructions. The TYK2 (JH2domain-pseudokinase) fusion protein is labeled with a chimeric double-stranded DNA tag containing the NFkB binding site (5′-GGGAATTCCC-3′) fused to an amplicon for qPCR readout, which is added directly to the expression extract (the final concentration of DNA-tag in the binding reaction is 0.1 nM).

T1 sequence (P29597 556-888): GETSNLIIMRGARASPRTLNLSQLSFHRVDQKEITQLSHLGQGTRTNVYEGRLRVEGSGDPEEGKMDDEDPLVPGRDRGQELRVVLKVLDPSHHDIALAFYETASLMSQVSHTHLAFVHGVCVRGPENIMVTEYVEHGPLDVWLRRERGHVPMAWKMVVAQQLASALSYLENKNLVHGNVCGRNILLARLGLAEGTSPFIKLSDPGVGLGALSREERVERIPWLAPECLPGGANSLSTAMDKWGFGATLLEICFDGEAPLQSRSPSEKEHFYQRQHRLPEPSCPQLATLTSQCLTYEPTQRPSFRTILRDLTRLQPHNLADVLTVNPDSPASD

| Kd [µM] | SMILES |
| --- | --- |
| 0.37 | CNC(=O)c1cnc(N2CCCC2)nc1Nc1ccc(C2CC2)nc1 [US20250257051, Compound 10] |
| 19 | CNC(=O)c1cnc(N2CCNCC2C)nc1Nc1ccc(C2CC2)nc1 (centres undefined) [US20250257051, Compound 14] |
| 3.3 | COc1ccccc1Nc1nc(N2CCCNCC2)ncc1C(N)=O [US20250257051, Compound 40] |
| 2.9 | CC(C)(C)OC(=O)N1CCCN(c2ncc(C(N)=O)c(Nc3ccccc3S(C)(=O)=O)n2)CC1 [US20250257051, Compound 65] |
